What all share (format): cell-based
In one data set the target is T1, OAT1 (Homo sapiens, UniProt Q4U2R8).
T1 construct: host or cells: MDCK
T1 sequence (Q4U2R8 1-563): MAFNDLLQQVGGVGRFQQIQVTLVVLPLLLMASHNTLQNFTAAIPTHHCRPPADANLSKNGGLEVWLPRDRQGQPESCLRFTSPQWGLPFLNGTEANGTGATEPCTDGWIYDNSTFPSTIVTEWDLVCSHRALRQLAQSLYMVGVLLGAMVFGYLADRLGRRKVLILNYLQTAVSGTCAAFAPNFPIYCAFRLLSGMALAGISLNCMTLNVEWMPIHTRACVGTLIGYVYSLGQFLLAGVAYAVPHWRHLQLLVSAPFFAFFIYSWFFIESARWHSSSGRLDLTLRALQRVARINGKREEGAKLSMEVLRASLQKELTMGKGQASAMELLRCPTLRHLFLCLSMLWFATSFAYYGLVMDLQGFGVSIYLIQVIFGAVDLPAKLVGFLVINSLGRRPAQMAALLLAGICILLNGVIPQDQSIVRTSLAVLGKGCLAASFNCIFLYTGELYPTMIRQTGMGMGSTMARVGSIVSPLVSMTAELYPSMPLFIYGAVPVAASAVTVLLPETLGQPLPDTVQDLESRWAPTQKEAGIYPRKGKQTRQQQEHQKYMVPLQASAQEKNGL
Description: Inhibition of OAT1-mediated 14C-PAH uptake in MDCK-OAT1 cells. How it is done: (§1) Cells were cultured in DMEM supplemented with 10% FBS, 100 units/mL penicillin and 100 units/mL streptomycin. […] Cell culture flasks, 24-well cell culture plates, and transwell polycarbonate inserts (12 mm diameter, 0.4 μm pore size) were purchased from Corning Co-star Corp. (Bedford, MA).
(§2) The MDCK-OAT1, S2-OAT3, S2-OCT2 and HEK293-OATP1B1 cell lines were utilized in this study. […] Briefly, S2-OAT3, S2-OCT2 and S2-mock cells were trypsinized and uniformly suspended in the culture medium’s designated volume to provide a density of 2.0 × 10^5 cells/mL. A 1.0-mL aliquot of the cell suspension was added into each well of 24-well insert plates. HEK293-OATP1B1, MDCK-OAT1 and their mock cells were seeded in 24-well plates at a density of 1.5 × 10^5 cells/well. […] Three washes terminated the experiment with ice-cold DPBS buffer after removing the incubation buffer. Cells were lysed with 400 μL of […] sodium hydroxide solution. The cell lysate and 3.0 mL of aquasol-2 scintillation fluid were put into a scintillation flask. […] The final concentration of DMSO in the assay was less than 0.1%. All experiments were performed in triplicate.

The target in the next data set is T2, MDR1 (Homo sapiens, UniProt P08183).
T2 construct: host or cells: MDCK
T2 sequence (P08183 whole entry): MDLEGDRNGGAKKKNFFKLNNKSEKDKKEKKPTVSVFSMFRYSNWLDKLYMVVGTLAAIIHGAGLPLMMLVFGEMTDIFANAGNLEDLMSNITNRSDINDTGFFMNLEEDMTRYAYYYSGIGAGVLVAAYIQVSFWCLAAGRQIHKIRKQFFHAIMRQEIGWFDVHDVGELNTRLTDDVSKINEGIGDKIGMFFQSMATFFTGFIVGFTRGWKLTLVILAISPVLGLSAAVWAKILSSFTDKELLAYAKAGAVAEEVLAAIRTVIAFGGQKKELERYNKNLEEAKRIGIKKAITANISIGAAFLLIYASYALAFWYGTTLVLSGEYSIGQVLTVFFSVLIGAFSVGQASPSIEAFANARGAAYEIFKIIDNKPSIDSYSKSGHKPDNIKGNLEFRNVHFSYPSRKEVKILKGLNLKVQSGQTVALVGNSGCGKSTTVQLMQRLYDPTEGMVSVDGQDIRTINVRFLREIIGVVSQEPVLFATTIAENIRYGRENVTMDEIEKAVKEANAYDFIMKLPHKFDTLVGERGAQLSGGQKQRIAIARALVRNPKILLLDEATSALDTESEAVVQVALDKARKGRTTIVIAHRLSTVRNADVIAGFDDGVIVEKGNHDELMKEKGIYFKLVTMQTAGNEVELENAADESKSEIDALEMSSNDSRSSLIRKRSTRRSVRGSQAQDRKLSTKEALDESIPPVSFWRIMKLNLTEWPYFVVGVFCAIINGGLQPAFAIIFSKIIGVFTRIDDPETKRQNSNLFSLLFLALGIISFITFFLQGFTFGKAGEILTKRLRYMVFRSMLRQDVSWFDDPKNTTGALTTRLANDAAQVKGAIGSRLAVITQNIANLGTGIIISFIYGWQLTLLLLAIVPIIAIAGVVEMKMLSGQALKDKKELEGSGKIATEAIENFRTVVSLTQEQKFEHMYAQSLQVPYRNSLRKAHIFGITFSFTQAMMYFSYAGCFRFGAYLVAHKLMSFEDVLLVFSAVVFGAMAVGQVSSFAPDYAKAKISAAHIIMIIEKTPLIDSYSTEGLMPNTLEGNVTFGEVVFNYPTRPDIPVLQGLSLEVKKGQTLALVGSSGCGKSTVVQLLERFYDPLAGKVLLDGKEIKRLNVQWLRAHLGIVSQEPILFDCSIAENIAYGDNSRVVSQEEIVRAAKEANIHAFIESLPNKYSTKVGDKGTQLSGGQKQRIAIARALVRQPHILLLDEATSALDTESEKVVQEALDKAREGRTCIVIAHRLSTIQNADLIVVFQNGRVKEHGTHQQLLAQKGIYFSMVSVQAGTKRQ
Description: Inhibition of MDR1-mediated rhodamine 123 efflux in MDCK-MDR1 cells. As to conditions: for inhibitory effect on efflux of MDR1-mediated rhodamine 123: GA 50–5000 μg/L, PCA 10–1000 μg/L. An excerpt: The human multidrug resistance protein (MDR)1-transfected Madin–Darby Canine Kidney (MDCK) cells, human breast cancer resistance protein (BCRP)-transfected MDCK cells, human organic anion transporter (OAT)1-transfected MDCK cells, OAT3-transfected second portion of proximal tubule (S2) cells, human organic cation transporter (OCT)2-transfected S2 cells, human organic anion transporting polypeptide (OATP)1B1-transfected human embryonic kidney 293 (HEK293) cells and their MOCK cells were kindly provided by Japan Fuji Biomedical Co., Ltd. (Osaka, Japan). Cells were cultured in DMEM supplemented with 10% FBS, 100 units/mL penicillin and 100 […]. All cells were incubated in a humidified atmosphere of 95% air and 5% CO2 at 37 °C. A solution of 0.25% trypsin-EDTA was used to detach the cells from flasks. Cell culture flasks, 24-well cell culture plates, and transwell polycarbonate inserts (12 mm diameter, 0.4 μm pore size) were purchased from Corning Co-star Corp. (Bedford, MA).
Inhibitory effects of GA and PCA on efflux transporters MDR1 and BCRP were investigated with the fluorogenic substrates rhodamine 123 (10 µM) and lucifer yellow (10 µM), respectively. The positive control inhibitors of MDR1 and BCRP were verapamil (10 µM) and cyclosporine (20 µM), respectively. The efflux experiments were adapted from previously reported methods with minor modifications (Reznicek et al. [2017]). Briefly, MDCK-MDR1, MDCK-BCRP and MDCK-mock cells were trypsinized and uniformly suspended in the designated volume of HBSS to provide a density of 4.0 × 10^5 cells/mL. For 0.5 mL of cell suspension and 1.5 mL of HBSS buffer medium were added in the apical and basolateral compartments of 12-well Transwell plates. After cultivation for 7 d, cells were washed twice and equilibrated for 30 min at 37 °C with the pre-warmed HBSS buffer. The integrity of cell monolayers was verified by the determination of the value of transepithelial electrical resistance (TEER) using a Millipore Millicell-ERS system (Millipore Corporation, Bedford, MA) (200–300 Ω × cm^2). An aliquot of 1.5 mL transport buffer containing probe substrates was added in the basolateral compartment to initiate the efflux in the presence or absence of GA (50, 150, 500, 1500 and 5000 μg/L), PCA (10, 30, 100, 300 and 1000 μg/L) or positive inhibitors at 37 °C. An aliquot of 0.5 mL empty transport buffer was placed in the apical compartment. After 2 h of co-incubation, 100 μL of HBSS in the apical compartment was transferred to 96-well plates. Fluorescence was measured at 485 nm (excitation) and 546 nm (emission) for rhodamine 123, and 425 nm (excitation) and 528 nm (emission) for Lucifer yellow. The final concentration of DMSO in the assay was less than 0.1%. All experiments were performed in triplicate.

The target in a further data set is T3, OAT3 (Homo sapiens, UniProt Q8TCC7).
T3 construct: host or cells: S2 (second portion of proximal tubule) cells
T3 sequence (Q8TCC7 1-542): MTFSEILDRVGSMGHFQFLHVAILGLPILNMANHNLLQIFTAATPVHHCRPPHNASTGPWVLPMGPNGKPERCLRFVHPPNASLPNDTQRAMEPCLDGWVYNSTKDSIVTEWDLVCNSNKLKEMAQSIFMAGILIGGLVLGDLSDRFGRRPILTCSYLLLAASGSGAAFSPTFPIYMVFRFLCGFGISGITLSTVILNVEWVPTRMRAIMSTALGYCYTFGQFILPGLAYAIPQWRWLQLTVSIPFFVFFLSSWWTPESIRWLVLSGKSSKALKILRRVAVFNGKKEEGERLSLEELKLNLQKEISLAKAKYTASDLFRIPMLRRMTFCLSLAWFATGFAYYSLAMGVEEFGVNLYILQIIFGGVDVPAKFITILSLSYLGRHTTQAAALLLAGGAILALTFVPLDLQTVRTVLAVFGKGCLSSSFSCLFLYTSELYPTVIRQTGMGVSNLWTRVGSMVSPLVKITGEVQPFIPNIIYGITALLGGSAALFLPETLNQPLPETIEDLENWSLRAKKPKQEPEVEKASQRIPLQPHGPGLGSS
The experiment in a line: Inhibition of OAT3-mediated 3H-ES uptake in S2-OAT3 cells. As to conditions: GA 50–5000 μg/L, PCA 10–1000 μg/L. How it is done: as §1, §2

The mark [1] stands for this setting: estimated, 14C-PAH 5 µM, MDCK-OAT1 cells.

≈ marks a conversion by molar mass, not a printed value.

In the case of `O=C(O)c1cc(O)c(O)c(O)c1` [GA, gallic acid], at OAT1 (setting [1]), the IC50 (in general, the concentration at which inhibition is half-maximal) was 3.73 µM and the “IC50 (OAT1)” value was 0.6341 µg/mL (≈ 3.73 µM). The “inhibitory effect on efflux of MDR1-mediated rhodamine 123” value at MDR1 is “no significant inhibitory effect”. Further, the “efflux of rhodamine 123 compared with the control” value at MDR1 (relatively high concentrations) was “significant increase”.

For the compound `O=C(O)c1ccc(O)c(O)c1` [PCA, protocatechuic acid], at OAT3, the “inhibitory effect on OAT3” value is recorded as “no significant inhibitory effect”. Also, the “inhibitory effect on OAT1” value against OAT1 (GA 50–5000 μg/L, PCA 10–1000 μg/L) is reported as “no significant inhibitory effect”. At MDR1, the “inhibitory effect on efflux of MDR1-mediated rhodamine 123” value is on record as “no significant inhibitory effect”. In addition, the activity at 2 h, 6.5 µM on MDR1 (human, probe rhodamine 123 (10 µM), MDCK-MDR1 cells, PCA 1000 μg/L (6.5 µM), read-out: efflux of rhodamine 123, % of control) is roughly 190%.

The values are drawn from paper PMC8216263 (Pharmaceutical Biology, 2021).
